Test results as given in patent US6093732A, “4-hydroxyquinoline-3-carboxamides and hydrazides as antiviral agents” (Pharmacia & Upjohn Company, priority 1998, dated 2000).

Legend:
Assay type in all cases: biochemical
HSV polymerase = HSV polymerase (Human herpesvirus 1, UniProt P04293); test: HSV polymerase assay (procedure similar to the HCMV polymerase SPA); conditions: Table 1, read-out: Antiviral Selective Polymerase IC50 Values, HSV
Procedure: (§1) The HCMV polymerase assay is performed using a scintillation proximity assay (SPA) as described in several references, such as N. D. Cook, et al., Pharmaceutical Manufacturing International, pages 49-53 (1992); K. Takeuchi, Laboratory Practice, September issue (1992); U.S. Pat. No. 4,568,649 (1986); which are incorporated by reference herein. Reactions are performed in 96-well plates. The assay is conducted in 100 μl volume with 5.4 mM HEPES (pH 7.5), 11.7 mM KCl, 4.5 mM MgCl2, 0.36 mg/ml BSA, and 90 nM ^3 H-dTTP. Assays are run with and without CHAPS, (3-[(3-Cholamidopropyl)-dimethylammonio]-1-propane-sulfonate) at a final concentration of 2 mM. HCMV polymerase is diluted in enzyme dilution buffer containing 50% glycerol, 250 mM NaCl, 10 mM HEPES (pH 7.5), 100 μg/ml BSA, and 0.01% sodium azide. The HCMV polymerase, which is expressed in recombinant baculovirus-infected SF-9 cells and purified according to literature procedures, is added at 10% (or 10 μl) of the final reaction volume, i.e., 100 μl. Compounds are diluted in 50% DMSO and 10 μl are added to each well. Control wells contain an equivalent concentration of DMSO. Unless noted otherwise, reactions are initiated via the addition of 6 nM biotinylated poly(dA)-oligo(dT) template/primer to reaction mixtures containing the enzyme, substrate, and compounds of interest. Plates are incubated in a 25° C. or 37° C. H2 O bath and terminated via the addition of 40 μl/reaction of 0.5 M EDTA (pH 8) per well. Reactions are terminated within the time-frame during which substrate incorporation is linear and varied depending upon the enzyme and conditions used, i.e., 30 min. for HCMV polymerase. Ten μl of streptavidin-SPA beads (20 mg/ml in PBS/10% glycerol) are added following termination of the reaction. Plates are incubated 10 min. at 37° C., then equilibrated to room temperature, and counted on a Packard Topcount. Linear regressions are performed and IC50 's are calculated using computer software.
(§2) A modified version of the above HCMV polymerase assay is performed as described above, but with the following changes: Compounds are diluted in 100% DMSO until final dilution into assay buffer. In the previous assay, compounds are diluted in 50% DMSO. 4.5 mM dithiotherotol (DTT) is added to the polymerase buffer. […] Other viral polymerase assays are performed using procedures similar to those described above.

HCMV polymerase = molecular target: T1, HCMV polymerase (Human cytomegalovirus, UniProt P08546); test: HCMV polymerase scintillation proximity assay (SPA), modified version; conditions: CMV polymerase; Table 1; modified assay with 4.5 mM DTT, compounds in 100% DMSO; read-out: Antiviral Selective Polymerase IC50 Values, CMV
T1 construct: made in house; host or cells: recombinant baculovirus-infected SF-9 cells
T1 sequence (P08546 whole entry): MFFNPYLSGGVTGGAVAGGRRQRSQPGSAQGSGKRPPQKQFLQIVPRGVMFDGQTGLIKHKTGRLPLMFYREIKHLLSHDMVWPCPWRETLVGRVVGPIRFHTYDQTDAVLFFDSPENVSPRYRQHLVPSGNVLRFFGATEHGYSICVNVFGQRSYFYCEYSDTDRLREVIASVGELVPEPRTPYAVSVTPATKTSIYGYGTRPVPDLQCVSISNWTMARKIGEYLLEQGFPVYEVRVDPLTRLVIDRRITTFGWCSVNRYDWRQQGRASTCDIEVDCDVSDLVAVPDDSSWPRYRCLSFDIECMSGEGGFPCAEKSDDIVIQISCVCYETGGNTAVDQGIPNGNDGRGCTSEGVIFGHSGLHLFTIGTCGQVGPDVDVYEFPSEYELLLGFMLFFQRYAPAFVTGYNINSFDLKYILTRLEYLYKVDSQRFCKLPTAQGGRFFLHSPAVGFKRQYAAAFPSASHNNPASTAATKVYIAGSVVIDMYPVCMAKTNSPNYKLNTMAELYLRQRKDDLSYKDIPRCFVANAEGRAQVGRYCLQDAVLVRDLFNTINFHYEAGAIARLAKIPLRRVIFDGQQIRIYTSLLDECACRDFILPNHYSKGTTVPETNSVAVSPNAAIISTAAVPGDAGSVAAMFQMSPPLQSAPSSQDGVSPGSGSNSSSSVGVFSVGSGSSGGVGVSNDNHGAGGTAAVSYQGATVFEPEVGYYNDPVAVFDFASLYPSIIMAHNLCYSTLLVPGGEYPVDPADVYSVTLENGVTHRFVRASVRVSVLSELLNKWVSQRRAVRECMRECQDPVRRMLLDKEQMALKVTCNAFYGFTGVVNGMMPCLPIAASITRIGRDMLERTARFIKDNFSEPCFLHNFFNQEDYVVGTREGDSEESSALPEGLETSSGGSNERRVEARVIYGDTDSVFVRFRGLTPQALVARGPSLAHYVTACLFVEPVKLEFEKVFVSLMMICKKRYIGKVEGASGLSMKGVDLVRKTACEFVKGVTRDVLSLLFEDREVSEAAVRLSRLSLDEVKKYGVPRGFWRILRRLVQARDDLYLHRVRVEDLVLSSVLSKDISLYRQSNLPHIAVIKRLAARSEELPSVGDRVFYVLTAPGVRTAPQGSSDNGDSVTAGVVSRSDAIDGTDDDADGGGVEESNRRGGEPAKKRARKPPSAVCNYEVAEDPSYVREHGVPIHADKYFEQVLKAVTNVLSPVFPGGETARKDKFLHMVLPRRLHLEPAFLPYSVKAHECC
How it was run: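 SPA measuring 3H-dTTP (90 nM) incorporation on 6 nM biotinylated poly(dA)-oligo(dT) by SF-9-expressed enzyme, pH 7.5 HEPES/KCl/MgCl2/BSA buffer with or without 2 mM CHAPS. Run at 25° C or 37° C, stopped with EDTA while linear (HCMV 30 min); IC50 from linear regression. Modified format adds 4.5 mM DTT, compounds diluted in 100% DMSO.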

VZV polymerase = VZV polymerase (Varicella-zoster virus, UniProt P09252); test: VZV polymerase assay (procedure similar to the HCMV polymerase SPA); conditions: Table 1, read-out: Antiviral Selective Polymerase IC50 Values, VZV
VZV polymerase, sequence (P09252 whole entry): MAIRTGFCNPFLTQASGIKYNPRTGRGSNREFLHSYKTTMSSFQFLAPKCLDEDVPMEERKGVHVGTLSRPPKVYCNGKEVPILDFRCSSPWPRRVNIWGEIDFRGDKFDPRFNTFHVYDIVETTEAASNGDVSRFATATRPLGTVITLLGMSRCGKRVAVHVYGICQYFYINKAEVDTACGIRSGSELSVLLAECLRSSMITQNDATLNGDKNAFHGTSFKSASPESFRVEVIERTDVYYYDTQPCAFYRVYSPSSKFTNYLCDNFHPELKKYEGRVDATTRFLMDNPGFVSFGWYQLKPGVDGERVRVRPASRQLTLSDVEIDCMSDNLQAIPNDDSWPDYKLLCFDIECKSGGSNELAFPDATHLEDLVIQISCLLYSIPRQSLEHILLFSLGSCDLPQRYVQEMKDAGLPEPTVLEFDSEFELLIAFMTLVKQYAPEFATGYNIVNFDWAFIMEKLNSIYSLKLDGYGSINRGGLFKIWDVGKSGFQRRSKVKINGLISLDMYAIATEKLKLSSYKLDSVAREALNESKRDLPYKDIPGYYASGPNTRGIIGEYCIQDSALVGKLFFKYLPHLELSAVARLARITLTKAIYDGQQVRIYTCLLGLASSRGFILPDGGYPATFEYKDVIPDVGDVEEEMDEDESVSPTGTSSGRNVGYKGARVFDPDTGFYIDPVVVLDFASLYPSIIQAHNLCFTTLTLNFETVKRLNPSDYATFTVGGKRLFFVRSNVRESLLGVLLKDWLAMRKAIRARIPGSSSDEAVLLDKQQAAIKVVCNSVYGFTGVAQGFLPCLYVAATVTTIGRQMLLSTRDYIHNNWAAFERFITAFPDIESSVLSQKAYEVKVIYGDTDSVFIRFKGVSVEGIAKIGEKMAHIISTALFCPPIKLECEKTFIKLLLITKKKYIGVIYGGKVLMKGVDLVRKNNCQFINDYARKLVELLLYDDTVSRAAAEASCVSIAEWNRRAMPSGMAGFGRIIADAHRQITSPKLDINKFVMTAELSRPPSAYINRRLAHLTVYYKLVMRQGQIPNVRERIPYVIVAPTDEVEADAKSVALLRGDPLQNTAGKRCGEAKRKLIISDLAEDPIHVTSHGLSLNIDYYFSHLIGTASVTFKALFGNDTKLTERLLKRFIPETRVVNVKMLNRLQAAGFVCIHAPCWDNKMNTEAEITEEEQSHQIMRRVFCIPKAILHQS
Procedure: as §1, §2

HSV polymerase, sequence (P04293 whole entry): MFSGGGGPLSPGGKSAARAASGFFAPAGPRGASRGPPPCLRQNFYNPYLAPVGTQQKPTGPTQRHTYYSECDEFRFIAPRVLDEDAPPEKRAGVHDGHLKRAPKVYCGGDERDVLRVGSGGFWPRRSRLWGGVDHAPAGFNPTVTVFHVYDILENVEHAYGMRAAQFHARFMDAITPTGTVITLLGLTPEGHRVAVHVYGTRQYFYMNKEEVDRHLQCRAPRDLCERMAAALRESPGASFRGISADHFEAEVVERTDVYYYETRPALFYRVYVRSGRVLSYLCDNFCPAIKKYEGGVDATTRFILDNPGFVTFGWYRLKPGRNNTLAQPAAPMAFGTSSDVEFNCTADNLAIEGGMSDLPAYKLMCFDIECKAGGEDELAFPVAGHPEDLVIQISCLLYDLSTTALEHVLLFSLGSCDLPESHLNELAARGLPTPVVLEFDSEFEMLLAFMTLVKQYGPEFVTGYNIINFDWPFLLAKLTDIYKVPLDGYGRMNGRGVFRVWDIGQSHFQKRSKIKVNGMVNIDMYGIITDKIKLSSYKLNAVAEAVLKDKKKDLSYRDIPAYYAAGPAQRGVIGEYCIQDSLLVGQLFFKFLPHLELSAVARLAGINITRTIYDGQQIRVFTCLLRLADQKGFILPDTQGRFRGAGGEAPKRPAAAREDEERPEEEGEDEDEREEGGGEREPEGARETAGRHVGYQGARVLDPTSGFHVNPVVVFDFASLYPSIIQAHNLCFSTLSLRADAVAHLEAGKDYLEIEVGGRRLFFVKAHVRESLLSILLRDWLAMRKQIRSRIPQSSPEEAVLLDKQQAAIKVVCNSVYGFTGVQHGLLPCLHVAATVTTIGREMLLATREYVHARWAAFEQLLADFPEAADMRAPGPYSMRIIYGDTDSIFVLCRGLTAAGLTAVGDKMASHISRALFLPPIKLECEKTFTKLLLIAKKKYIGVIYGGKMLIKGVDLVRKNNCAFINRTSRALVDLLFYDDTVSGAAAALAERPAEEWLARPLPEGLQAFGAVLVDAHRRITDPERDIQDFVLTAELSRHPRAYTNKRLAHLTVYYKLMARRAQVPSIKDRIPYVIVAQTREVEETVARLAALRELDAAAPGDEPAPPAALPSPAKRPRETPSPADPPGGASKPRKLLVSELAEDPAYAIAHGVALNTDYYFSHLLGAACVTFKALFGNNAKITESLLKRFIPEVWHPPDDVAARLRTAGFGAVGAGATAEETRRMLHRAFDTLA

IC50 (HSV polymerase) [µM]	IC50 (HCMV polymerase) [µM]	IC50 (VZV polymerase) [µM]	SMILES
35.5	38.2	13.3	O=C(NCc1ccc(Cl)cc1)c1cnc2cc(C(F)(F)F)ccc2c1O [Example 1, N-[(4-Chlorophenyl)methyl]-4-hydroxy-7-(trifluoromethyl)-3-quinoline-carboxamide]
	18.7		CCSCCNS(=O)(=O)c1cc(F)c2ncc(C(=O)NCc3ccc(Cl)cc3)c(O)c2c1 [Example 251, N-(4-chlorobenzyl)-6-({[2-(ethylsulfanyl)ethyl]amino}sulfonyl)-8-fluoro-4-hydroxy-3-quinolinecarboxamide]
	18.9		Cc1ccc(CNS(=O)(=O)c2cc(F)c3ncc(C(=O)NCc4ccc(Cl)cc4)c(O)c3c2)cc1C [Example 252, N-(4-chlorobenzyl)-6-{[(3,4-dimethylbenzyl)amino]sulfonyl}-8-fluoro-4-hydroxy-3-quinolinecarboxamide]
	20.6		O=C(NCc1ccc(Cl)cc1)c1cnc2c(F)cc(S(=O)(=O)NCC3CC3)cc2c1O [Example 253, N-(4-chlorobenzyl)-6-{[(cyclopropylmethyl)amino]sulfonyl}-8-fluoro-4-hydroxy-3-quinolinecarboxamide]
	14.7		O=C(NCc1ccc(Cl)cc1)c1cnc2c(F)cc(S(=O)(=O)NCc3ccc(Br)cc3)cc2c1O [Example 254, 6-{[(4-bromobenzyl)amino]sulfonyl}-N-(4-chlorobenzyl)-8-fluoro-4-hydroxy-3-quinolinecarboxamide]
	12.1		O=C(NCc1ccc(Cl)cc1)c1cnc2c(F)cc(S(=O)(=O)NCCc3cccs3)cc2c1O [Example 255, N-(4-chlorobenzyl)-8-fluoro-4-hydroxy-6-({[2-(2-thienyl)ethyl]amino}sulfonyl)-3-quinolinecarboxamide]
	9.3		O=C(NCc1ccc(Cl)cc1)c1cnc2c(F)cc(S(=O)(=O)NCCOc3ccccc3)cc2c1O [Example 256, N-(4-chlorobenzyl)-8-fluoro-4-hydroxy-6-{[(2-phenoxyethyl)amino]sulfonyl}-3-quinolinecarboxamide]
	16.3		CC(C)(C)OC(=O)CNS(=O)(=O)c1cc(F)c2ncc(C(=O)NCc3ccc(Cl)cc3)c(O)c2c1 [Example 257, tert-butyl 2-{[(3-{[(4-chlorobenzyl)amino]carbonyl}-8-fluoro-4-hydroxy-6-quinolinyl)sulfonyl]amino}acetate]
	15.2		CC(C)(C)OC(=O)CCNS(=O)(=O)c1cc(F)c2ncc(C(=O)NCc3ccc(Cl)cc3)c(O)c2c1 [Example 258, tert-butyl 3-{[(3-{[(4-chlorobenzyl)amino]carbonyl}-8-fluoro-4-hydroxy-6-quinolinyl)sulfonyl]amino}propanoate]
	6.1		O=C(NCc1ccc(Cl)cc1)c1cnc2c(F)cc(S(=O)(=O)NCc3cccc(OC(F)(F)F)c3)cc2c1O [Example 259, N-(4-chlorobenzyl)-8-fluoro-4-hydroxy-6-({[3-(trifluoro-methoxy)benzyl]amino}sulfonyl)-3-quinolinecarboxamide]
	5.7		O=C(NCc1ccc(Cl)cc1)c1cnc2c(F)cc(S(=O)(=O)NCc3ccccc3Sc3ccccc3CO)cc2c1O [Example 260]
	15.1		O=C(NCc1ccc(Cl)cc1)c1cnc2c(F)cc(S(=O)(=O)NCc3ccc(-c4csnn4)cc3)cc2c1O [Example 261, N-(4-chlorobenzyl)-8-fluoro-4-hydroxy-6-({[4-(1,2,3-thiadiazol-4-yl)benzyl]amino}sulfonyl)-3-quinolinecarboxamide]
	9.9		O=C(NCc1ccc(Cl)cc1)c1cnc2c(F)cc(S(=O)(=O)NCc3ccc(Cl)cc3F)cc2c1O [Example 262, N-(4-chlorobenzyl)-6-{[(4-chloro-2-fluorobenzyl)amino]sulfonyl}-8-fluoro-4-hydroxy-3-quinolinecarboxamide]
	23.1		O=C(NCc1ccc(Cl)cc1)c1cnc2c(F)cc(S(=O)(=O)NCCSCCO)cc2c1O [Example 263, N-(4-chlorobenzyl)-8-fluoro-4-hydroxy-6-[({2-[(2-hydroxyethyl)-sulfanyl]ethyl}amino)sulfonyl]-3-quinolinecarboxamide]
	90.2		CC(C)(N)CNS(=O)(=O)c1cc(F)c2ncc(C(=O)NCc3ccc(Cl)cc3)c(O)c2c1 [Example 264, 6-{[(2-amino-2-methylpropyl)amino]sulfonyl}-N-(4-chlorobenzyl)-8-fluoro-4-hydroxy-3-quinolinecarboxamide]
	11.4		NC(=O)CNS(=O)(=O)c1cc(F)c2ncc(C(=O)NCc3ccc(Cl)cc3)c(O)c2c1 [Example 265, 6-{[(2-amino-2-oxoethyl)amino]sulfonyl}-N-(4-chlorobenzyl)-8-fluoro-4-hydroxy-3-quinolinecarboxamide]
	10.1		Nc1ccc(CNS(=O)(=O)c2cc(F)c3ncc(C(=O)NCc4ccc(Cl)cc4)c(O)c3c2)cc1 [Example 266, 6-{[(4-aminobenzyl)amino]sulfonyl}-N-(4-chlorobenzyl)-8-fluoro-4-hydroxy-3-quinolinecarboxamide]
	52.2		CC(C)(C)OP(=O)(OCCCc1cc(F)c2ncc(C(=O)NCc3ccc(Cl)cc3)c(O)c2c1)OC(C)(C)C [Example 267, Di(tert-butyl) 3-(3-{[(4-chlorobenzyl)amino]carbonyl}-8-fluoro-4-hydroxy-6-quinolinyl)propyl phosphate]
	9.5		O=C(NCc1ccc(Cl)cc1)c1cnc2c(F)cc(CCCOP(=O)(O)O)cc2c1O [Example 268, 3-(3-{[(4-Chlorobenzyl)amino]carbonyl}-8-fluoro-4-hydroxy-6-quinolinyl)propyl dihydrogen phosphate]
	9.8		O=C(NCc1ccc(Cl)cc1)c1cnc2ccc(CCCOP(=O)(O)O)cc2c1O [Example 269, 3-(3-{[(4-Chlorobenzyl)amino]carbonyl-4-hydroxy-6-quinolinyl)propyldihydrogen phosphate]
	2.8		CC(C)(C)O[PH](=O)OCCCc1ccc2ncc(C(=O)NCc3ccc(Cl)cc3)c(O)c2c1 (stereo not drawn) [Example 270, tert-Butyl 3-(3-{[(4-chlorobenzyl)amino]carbonyl}-4-hydroxy-6-quinolinyl)propyl phosphonate]
	20.4		CC(C)(C)O[PH](=O)OCCCc1cc(F)c2ncc(C(=O)NCc3ccc(Cl)cc3)c(O)c2c1 (stereo not drawn) [Example 271, tert-Butyl 3-(3-{[(4-chlorobenzyl)amino]carbonyl}-8-fluoro-4-hydroxy-6-quinolinyl)propyl phosphonate]
	8.6		O=C(NCc1ccc(Cl)cc1)c1cnc2ccc(CCCO[PH](=O)O)cc2c1O [Example 272, 3-(3-{[(4-Chlorobenzyl)amino]carbonyl}-4-hydroxy-6-quinolinyl)propyl hydrogen phosphonate]
	28.4		CN(CCS(=O)(=O)O)C(=O)CCCCCCC(=O)OCC#Cc1cc(F)c2ncc(C(=O)NCc3ccc(Cl)cc3)c(O)c2c1 [Example 275]
	0.77		O=C(NCc1ccc(Cl)cc1)c1cnc2cc(S(=O)(=O)NCc3cccc4ccccc34)ccc2c1O [Example 277, N-(4-Chlorobenzyl)-4-hydroxy-7-{[(1-naphthylmethyl)amino]-sulfonyl}-3-quinolinecarboxamide]
	2.1		CSc1ccc2c(O)c(C(=O)NCc3ccc(Cl)cc3)cnc2c1 [Example 278, N-(4-Chlorobenzyl)-4-hydroxy-7-(methylsulfanyl)-3-quinolinecarboxamide]
	4.9		O=C(NCc1ccc(Cl)cc1)c1cnc2cc3c(cc2c1O)OCO3 [Example 279, N-(4-Chlorobenzyl)-8-hydroxy[1,3]dioxolo [4,5-g]quinoline-7-carboxamide]
	57.8		O=C(c1ccccc1)c1ccc2ncc(C(=O)NCc3ccc(Cl)cc3)c(O)c2c1 [Example 280, 6-Benzoyl-N-(4-chlorobenzyl)-4-hydroxy-3-quinolinecarboxamide]
